These results are taken from US20160279297A1, “METHODS FOR INHIBITING STENOSIS, OBSTRUCTION, OR CALCIFICATION OF A STENTED HEART VALVE OR BIOPROSTHESIS” (CONCIEVALVE LLC, priority 2013, published 2016).

One assay has as its system Mesenchymal valve cells. The experiment in a line: tritiated thymidine incorporation, PDGF-stimulated cell proliferation. It is filed as cell-based. Here is the method: Mesenchymal valve cells were isolated from the cardiac aortic valves by collagenase digestion. Cells were cultured in medium 199 with 10% (v/v) heat-inactivated fetal bovine serum at 37 C in a humidified atmosphere of 5% CO2 in air. Cells were utilized between the 3rd and 7th passage. Mesenchymal cells were grown to confluence in 24-well plates and then growth-arrested by incubation in serum-free medium for 24 hours. The test materials were added to the wells and incubated for 18 hours. Test materials include PDGF at concentrations (10-40 ug/ml) PDGF Sigma in combination with a MEK inhibitor (PD0325901 Mek Inhibitor) (2.5-10 ug/ml). The wells were pulsed for 4 hours with 1 μCi/well of tritiated thymidine. Newly synthesized DNA will be then identified by incorporation of radioactivity into acid-precipitated cellular material. All samples were assayed in quadruplicate wells. The positive control wells were given PDGF (10 ug/ml) Sigma (St. Louis, Mo.), the negative control wells received serum-free medium.
A general note: Incorporation of labelled thymidine or its analogues reports DNA synthesis.

The subject of the next assay is p42/44. In words: p42/44 protein expression by western blot. The format is cell-based. The following applies: FIG. 16 Panel C. (In general: Immunoblotting shows a protein as a band on a membrane.)
The next assay deals with neointima hyperplasia. The following applies: stent coating, at four weeks; cited from earlier work.
Assay [1] in a line: rabbit model of experimental hypercholesterolemia, serum levels. The format is in vivo. The following applies: cholesterol-fed rabbits, atorvastatin 3.0 mg/kg daily orally. From the text: An experimental animal was developed to test for the dosing of the atorvastatin to reduce the inflammation and also the pannus formation on the valve leaflet. The experimental procedure is as follows, Male New Zealand white rabbits weighing 2.5-3.0 kg were assigned to a control (N=10) or 0.5% cholesterol-fed group (N=10) or to a cholesterol-fed and atorvastatin group (N=10). All animals were fed ad libitum for 12 weeks. Control rabbits were fed a standard diet. Cholesterol-fed animals received a diet supplemented with 0.5% (w/w) cholesterol (Purina Mills, Woodmont, Ind.), and the cholesterol-fed and atorvastatin group were given atorvastatin 3.0 mg/kg daily orally for the statin treatment arm^1. Prior to the initiation of the diet the rabbits underwent surgical implantation of bovine pericardial bioprosthetic valve tissue (Perimount, Edwards, Irvine Calif.) using intramuscular ketamine/xylazine (40/5 mg/kg). Following this 12-week period, the rabbits were anesthetized using intramuscular ketamine/xylazine (40/5 mg/kg) and then underwent euthanasia with intracardiac administration of 1 ml of Beuthanasia. Immediately after removal from the subcutaneous implantation site the bioprosthetic valves were fixed in 4% buffered formalin for 24 hours and then embedded in paraffin. Paraffin embedded sections (6 μm) were cut and stained with Masson Trichrome stain for histopathologic exam. […]

Assay [2] deals with bovine pericardial bioprosthetic valve tissue. In words: rabbit model with subcutaneously implanted bioprosthetic valve tissue: RNA expression and pannus formation. The format is in vivo.
For assay [3] the following is noted: from biodegradable polylactic acid, follow-up of four years; cited from earlier work.
The mark [4] stands for this setting: atorvastatin at 80 mg per day equivalent to human dosing, FIG. 15.

On to `O=C(NOC[C@H](O)CO)c1ccc(F)c(F)c1Nc1ccc(I)cc1F` [PD0325901], for which the “dosing range with inhibition effect on cell proliferation” value with Mesenchymal valve cells (PDGF 10 ug/ml induced proliferation, tested range 2.5-10 ug/ml, 18 hours, FIG. 16 Panel B) lay within 5 to 10 µg/mL. Besides, the p42/44 protein expression entry in the assay on p42/44 is reported as “inhibition”.

For `CC(=O)O[C@H]1C(=O)[C@@]2(C)[C@H]([C@H](OC(=O)c3ccccc3)[C@]3(O)C[C@H](OC(=O)[C@H](O)[C@@H](NC(=O)c4ccccc4)c4ccccc4)C(C)=C1C3(C)C)[C@]1(OC(C)=O)CO[C@@H]1C[C@@H]2O` [Paclitaxel], the neointima hyperplasia entry in the assay on neointima hyperplasia is reported as “inhibits”.

In the case of PDGF, the mesenchymal cell proliferation entry in the assay with Mesenchymal valve cells (PDGF dose response 10-40 ug/ml, FIG. 16 Panel A) was “proliferating”. For the same molecule, in the assay on p42/44, the p42/44 protein expression result is “increase”.

Turning to `CC(C)c1c(C(=O)Nc2ccccc2)c(-c2ccccc2)c(-c2ccc(F)cc2)n1CC[C@@H](O)C[C@@H](O)CC(=O)O` [Atorvastatin], in assay [1] (12 weeks), the hsCRP serum levels stood at 7.8±8.7. Moreover, the serum cholesterol levels in assay [1] (12 weeks (equivalent to 80 mg a day for humans)) came to 824.0 ± 152.1 mg/dL. Also, in assay [2] (setting [4]), the “stem cell RNA expression on the valves” value is given as “reduction” and the “stem cell mediated pannus formation” value is reported as “reduction”. In addition, in assay [2] (previous experiments, 20 mg a day and 40 mg a day), the “therapeutic benefit at the lower dosing ranges” value is recorded as “zero therapeutic benefit”. In addition, the “ckit stem cell adhering to the valve” value in assay [2] (rabbit, in vivo) was “reduces”.

As for `CCOCCO[C@@H]1CC[C@@H](C[C@@H](C)[C@@H]2CC(=O)[C@H](C)/C=C(\C)[C@@H](O)[C@@H](OC)C(=O)[C@H](C)C[C@H](C)/C=C/C=C/C=C(\C)[C@@H](OC)C[C@@H]3CC[C@@H](C)[C@@](O)(O3)C(=O)C(=O)N3CCCC[C@H]3C(=O)O2)C[C@H]1OC` [biolimus], in assay [3], the “major adverse clinical events versus sirolimus eluting stents” value was “not inferior and potentially better”.
